Values quoted from earlier work in publication PMC9851200, “Multiparameter phenotypic screening for endogenous TFEB and TFE3 translocation identifies novel chemical series modulating lysosome function” (Autophagy, 2022).

Experiments:
Design in all cases: method as in original PKIS2 published data
[1] = molecular target: T1, kinases (KINOMEscan panel) (Homo sapiens, UniProt Q9BRS2); settings: RIOK1; Published KINOMEscan; ref original PKIS2 published data; cited from earlier work
T1 sequence (Q9BRS2 1-568): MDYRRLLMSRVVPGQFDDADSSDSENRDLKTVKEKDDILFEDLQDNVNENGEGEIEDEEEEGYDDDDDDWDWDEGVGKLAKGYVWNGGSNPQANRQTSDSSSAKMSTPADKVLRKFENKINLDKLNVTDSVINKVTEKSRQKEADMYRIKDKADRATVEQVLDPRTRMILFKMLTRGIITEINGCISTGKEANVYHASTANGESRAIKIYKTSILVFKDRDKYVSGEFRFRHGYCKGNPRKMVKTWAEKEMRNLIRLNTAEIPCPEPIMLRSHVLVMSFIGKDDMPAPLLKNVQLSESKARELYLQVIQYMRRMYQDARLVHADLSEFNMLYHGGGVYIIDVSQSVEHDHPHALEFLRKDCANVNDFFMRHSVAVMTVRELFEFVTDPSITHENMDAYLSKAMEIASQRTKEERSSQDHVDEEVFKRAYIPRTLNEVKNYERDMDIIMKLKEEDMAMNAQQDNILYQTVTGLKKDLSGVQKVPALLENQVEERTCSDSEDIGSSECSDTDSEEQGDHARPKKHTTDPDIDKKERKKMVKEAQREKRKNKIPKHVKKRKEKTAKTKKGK

[2] = molecular target: kinases (KINOMEscan panel) (Homo sapiens, UniProt P24941); settings: CDK2; Published KINOMEscan; ref original PKIS2 published data; cited from earlier work
[3] = molecular target: kinases (KINOMEscan panel) (Homo sapiens, UniProt P21860); settings: ERBB3; Published KINOMEscan; ref original PKIS2 published data; cited from earlier work
[4] = molecular target: kinases (KINOMEscan panel) (Homo sapiens, UniProt P09619); settings: Published KINOMEscan; ref original PKIS2 published data; cited from earlier work
[5] = molecular target: T2, kinases (KINOMEscan panel) (Homo sapiens, UniProt O75747); settings: Published KINOMEscan; ref original PKIS2 published data; cited from earlier work
T2 sequence (O75747 1-1486): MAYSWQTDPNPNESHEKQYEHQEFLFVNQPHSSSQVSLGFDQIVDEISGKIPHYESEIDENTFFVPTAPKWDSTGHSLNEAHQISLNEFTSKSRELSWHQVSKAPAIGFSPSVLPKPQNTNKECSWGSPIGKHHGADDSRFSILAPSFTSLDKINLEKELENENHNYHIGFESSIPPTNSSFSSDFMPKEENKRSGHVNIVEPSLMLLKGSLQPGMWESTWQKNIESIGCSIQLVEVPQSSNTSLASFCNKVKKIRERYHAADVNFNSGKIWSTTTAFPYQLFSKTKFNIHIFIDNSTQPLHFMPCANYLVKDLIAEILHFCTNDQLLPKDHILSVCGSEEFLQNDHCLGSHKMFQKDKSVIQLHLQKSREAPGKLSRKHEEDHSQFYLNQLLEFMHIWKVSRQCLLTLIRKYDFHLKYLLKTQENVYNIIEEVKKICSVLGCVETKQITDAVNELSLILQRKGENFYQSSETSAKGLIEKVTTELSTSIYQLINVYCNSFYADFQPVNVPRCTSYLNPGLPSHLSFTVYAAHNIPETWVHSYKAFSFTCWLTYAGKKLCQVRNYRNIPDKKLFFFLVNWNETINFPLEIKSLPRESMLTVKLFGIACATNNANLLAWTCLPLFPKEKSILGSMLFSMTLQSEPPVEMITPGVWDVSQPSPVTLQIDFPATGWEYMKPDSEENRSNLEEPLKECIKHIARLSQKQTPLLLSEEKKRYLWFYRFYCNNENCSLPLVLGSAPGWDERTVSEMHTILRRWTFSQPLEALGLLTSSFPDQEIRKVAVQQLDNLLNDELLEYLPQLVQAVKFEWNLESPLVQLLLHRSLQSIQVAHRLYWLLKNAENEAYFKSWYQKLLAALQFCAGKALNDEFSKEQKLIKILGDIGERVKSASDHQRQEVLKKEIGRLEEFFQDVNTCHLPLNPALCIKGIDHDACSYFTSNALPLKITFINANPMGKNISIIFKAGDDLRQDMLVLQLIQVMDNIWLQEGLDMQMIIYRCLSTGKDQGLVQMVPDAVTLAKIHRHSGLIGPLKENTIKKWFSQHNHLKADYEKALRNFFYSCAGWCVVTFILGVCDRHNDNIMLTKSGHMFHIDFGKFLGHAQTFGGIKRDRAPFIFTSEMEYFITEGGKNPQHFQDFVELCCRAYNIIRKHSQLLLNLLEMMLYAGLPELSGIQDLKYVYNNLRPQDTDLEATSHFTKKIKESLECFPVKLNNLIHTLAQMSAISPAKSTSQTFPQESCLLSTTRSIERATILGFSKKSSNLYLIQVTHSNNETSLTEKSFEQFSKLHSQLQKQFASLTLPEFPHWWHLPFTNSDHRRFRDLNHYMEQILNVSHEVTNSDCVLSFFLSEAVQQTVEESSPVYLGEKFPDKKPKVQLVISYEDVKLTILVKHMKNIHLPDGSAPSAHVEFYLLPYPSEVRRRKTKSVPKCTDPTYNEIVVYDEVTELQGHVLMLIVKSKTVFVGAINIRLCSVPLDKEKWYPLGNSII

[6] = molecular target: kinases (KINOMEscan panel) (Homo sapiens, UniProt Q9Y4K4); settings: kinase MAP4K5; Published KINOMEscan; ref original PKIS2 published data; cited from earlier work
Sequence of kinases (KINOMEscan panel) (Homo sapiens, UniProt Q9Y4K4) (Q9Y4K4 whole entry): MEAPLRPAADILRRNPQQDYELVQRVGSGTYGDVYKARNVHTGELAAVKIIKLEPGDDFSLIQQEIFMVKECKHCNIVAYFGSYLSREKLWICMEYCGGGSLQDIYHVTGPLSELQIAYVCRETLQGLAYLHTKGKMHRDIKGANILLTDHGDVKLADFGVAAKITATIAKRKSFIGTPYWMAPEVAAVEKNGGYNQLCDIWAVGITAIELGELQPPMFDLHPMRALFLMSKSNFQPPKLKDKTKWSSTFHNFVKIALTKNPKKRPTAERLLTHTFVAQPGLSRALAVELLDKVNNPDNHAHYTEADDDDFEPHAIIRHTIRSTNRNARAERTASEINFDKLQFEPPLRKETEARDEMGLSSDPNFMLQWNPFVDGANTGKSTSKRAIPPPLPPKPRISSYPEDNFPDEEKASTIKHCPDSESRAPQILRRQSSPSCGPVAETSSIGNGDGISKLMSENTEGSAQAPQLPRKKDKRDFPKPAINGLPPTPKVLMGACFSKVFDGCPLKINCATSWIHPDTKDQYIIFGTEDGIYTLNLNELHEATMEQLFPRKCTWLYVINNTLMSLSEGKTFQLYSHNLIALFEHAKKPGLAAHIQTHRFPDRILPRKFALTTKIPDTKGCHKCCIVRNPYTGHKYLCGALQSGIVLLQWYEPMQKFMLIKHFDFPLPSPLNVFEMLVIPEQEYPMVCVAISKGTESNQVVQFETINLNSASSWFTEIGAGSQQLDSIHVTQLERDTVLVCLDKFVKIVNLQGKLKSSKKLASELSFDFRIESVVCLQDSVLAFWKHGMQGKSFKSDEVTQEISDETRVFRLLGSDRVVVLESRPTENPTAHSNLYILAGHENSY

Sequence of kinases (KINOMEscan panel) (Homo sapiens, UniProt P09619) (P09619 33-1106): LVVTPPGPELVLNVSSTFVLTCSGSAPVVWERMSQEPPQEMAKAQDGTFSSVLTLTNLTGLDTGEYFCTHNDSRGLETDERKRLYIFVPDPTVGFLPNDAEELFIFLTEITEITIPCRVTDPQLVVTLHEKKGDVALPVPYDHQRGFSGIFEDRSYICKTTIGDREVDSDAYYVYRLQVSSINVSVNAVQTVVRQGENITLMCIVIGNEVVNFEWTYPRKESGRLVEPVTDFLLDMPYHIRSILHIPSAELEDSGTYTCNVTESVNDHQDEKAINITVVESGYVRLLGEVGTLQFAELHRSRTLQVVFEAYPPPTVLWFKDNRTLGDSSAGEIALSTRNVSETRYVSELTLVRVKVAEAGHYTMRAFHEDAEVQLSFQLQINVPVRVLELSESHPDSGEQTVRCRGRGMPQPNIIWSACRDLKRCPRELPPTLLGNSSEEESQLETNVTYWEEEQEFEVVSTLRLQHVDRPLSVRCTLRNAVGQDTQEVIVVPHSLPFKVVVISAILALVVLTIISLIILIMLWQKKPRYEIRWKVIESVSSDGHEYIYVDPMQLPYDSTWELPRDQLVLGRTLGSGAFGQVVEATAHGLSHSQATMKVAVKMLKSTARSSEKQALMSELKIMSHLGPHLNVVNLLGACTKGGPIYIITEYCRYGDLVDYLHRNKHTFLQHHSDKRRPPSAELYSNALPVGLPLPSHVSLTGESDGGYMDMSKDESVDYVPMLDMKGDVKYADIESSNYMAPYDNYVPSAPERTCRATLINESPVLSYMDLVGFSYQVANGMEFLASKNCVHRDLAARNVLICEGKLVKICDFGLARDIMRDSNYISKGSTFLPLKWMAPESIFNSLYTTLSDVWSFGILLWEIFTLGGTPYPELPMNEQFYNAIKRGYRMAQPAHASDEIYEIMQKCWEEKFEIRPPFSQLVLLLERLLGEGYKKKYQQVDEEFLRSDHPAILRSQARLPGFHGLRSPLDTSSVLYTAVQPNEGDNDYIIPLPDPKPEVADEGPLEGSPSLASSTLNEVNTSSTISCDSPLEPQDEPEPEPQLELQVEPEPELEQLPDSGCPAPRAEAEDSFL
Sequence of kinases (KINOMEscan panel) (Homo sapiens, UniProt P21860) (P21860 20-1342): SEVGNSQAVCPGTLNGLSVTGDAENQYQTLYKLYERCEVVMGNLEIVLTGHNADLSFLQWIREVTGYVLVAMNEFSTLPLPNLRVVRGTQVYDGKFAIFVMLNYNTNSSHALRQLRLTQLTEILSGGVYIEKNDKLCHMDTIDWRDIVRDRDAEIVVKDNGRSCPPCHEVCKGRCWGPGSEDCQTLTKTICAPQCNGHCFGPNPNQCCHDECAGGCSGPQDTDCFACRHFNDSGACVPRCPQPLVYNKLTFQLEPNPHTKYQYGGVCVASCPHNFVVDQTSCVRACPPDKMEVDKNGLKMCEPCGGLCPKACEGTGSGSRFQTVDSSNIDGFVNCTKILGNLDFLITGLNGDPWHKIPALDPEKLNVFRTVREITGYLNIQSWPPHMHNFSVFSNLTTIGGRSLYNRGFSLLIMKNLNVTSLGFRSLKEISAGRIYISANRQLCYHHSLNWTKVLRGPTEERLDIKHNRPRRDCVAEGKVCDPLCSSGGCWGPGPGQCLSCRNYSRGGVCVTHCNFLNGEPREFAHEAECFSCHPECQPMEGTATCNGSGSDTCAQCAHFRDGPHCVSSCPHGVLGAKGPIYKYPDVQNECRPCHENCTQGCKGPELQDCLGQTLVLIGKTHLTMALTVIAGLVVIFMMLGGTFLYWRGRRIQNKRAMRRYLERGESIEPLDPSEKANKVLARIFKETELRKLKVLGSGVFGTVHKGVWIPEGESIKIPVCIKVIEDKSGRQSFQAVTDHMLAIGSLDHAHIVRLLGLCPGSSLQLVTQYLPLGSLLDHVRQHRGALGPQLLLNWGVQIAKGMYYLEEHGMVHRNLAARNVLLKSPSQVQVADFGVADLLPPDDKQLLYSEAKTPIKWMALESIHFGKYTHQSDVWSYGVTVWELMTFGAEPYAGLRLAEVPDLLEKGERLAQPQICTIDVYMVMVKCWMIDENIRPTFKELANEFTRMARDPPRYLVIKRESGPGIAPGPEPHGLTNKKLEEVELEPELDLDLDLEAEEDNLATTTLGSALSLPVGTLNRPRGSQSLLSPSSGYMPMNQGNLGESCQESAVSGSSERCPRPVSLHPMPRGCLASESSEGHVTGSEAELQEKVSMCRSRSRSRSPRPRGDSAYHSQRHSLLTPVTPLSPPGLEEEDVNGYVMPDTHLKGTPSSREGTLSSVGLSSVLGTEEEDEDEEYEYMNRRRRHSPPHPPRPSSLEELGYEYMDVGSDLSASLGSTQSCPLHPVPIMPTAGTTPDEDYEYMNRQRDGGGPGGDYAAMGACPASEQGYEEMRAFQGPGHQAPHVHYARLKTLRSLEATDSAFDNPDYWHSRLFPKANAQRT

SMILES: Cc1cccc(-c2nc(Nc3ccncc3)c3ccccc3n2)n1 [NK215]
- KINOMEscan RIOK1 [1]: 0
- KINOMEscan CDK2 [2]: 0
- KINOMEscan ERBB3 [3]: 43
- KINOMEscan PDGFRB [4]: 3
- KINOMEscan PIK3C2G [5]: 0
- KINOMEscan MAP4K5 [6]: 0
